Test results taken from PMC6199744, “Development of Chemical Proteomics for the Folateome and Analysis of the Kinetoplastid Folateome” (ACS Infectious Diseases, 2018).
Where two headings read alike, the source gives them in different places.

System: T. brucei lysate proteins
Format: binding, Trypanosoma brucei

Measured: fold change

CCCCCCOc1cccc(Cc2cnc(N)nc2N)c1 [compound 2]
0.95: relative to vehicle control = 1, protein TB427TMP.02.1460 HY[…], CONSERVED | relative to vehicle control = 1, protein TB427TMP.18.0005 HY[…], CONSERVED | relative to vehicle control = 1, protein TB427.01.4050 PROTEIN P[…] EF-HAND DOMAINS (PPEF) | relative to vehicle control = 1, protein TB927.3.1120 GTP-BINDING NUCLEAR PROTEIN RTB2, PUTATIVE | vs vehicle control, protein TB927.10.540 ATP-DEPENDENT DEAD/H RNA HELICASE, PUTATIVE
0.97: relative to vehicle control = 1, protein TB427.06.3650 ADP-RI[…], PUTATIVE | relative to vehicle control = 1, protein TB927.4.5310 SERINE/THREONINE-PROTEIN KINASE A, PUTATIVE | vs vehicle control, protein TB11.02.1220 […] SUBUNIT 2 | vs vehicle control, protein TB427TMP.02.5620 Tb427tmp.02.5620 | vs vehicle control, protein TB427.06.3630 SPHINGOSINE 1-PHOSPHATE LYASE, PUTATIVE
0.89: relative to vehicle control = 1, protein TB427TMP.02.2970 KINESIN, PUTATIVE | relative to vehicle control = 1, protein TB427.07.2570 MRNA […], PUTATIVE
0.91: vs vehicle control, protein TB427.10.8190 T-COMPLEX PROTEIN 1, THETA SUBUNIT, PUTATIVE
1.1: relative to vehicle control = 1, protein TB11.02.0730 METACASPASE | relative to vehicle control = 1, protein TB427.10.14140 PYRUVATE KINASE 1 | relative to vehicle control = 1, protein TB927.2.2440 […]-ATPASE SUBUNIT 6 | vs vehicle control, protein TB427TMP.01.1540 HY[…], CONSERVED | vs vehicle control, protein TB427.10.14550 ATP-DEPENDENT DEAD/H RNA HELICASE, PUTATIVE
0.94: relative to vehicle control = 1, protein TB11.03.0815 DYNEIN LIGHT CHAIN | relative to vehicle control = 1, protein TB427TMP.02.2120 NUCLEOPORIN 48 | relative to vehicle control = 1, protein TB427.03.5420 PROTEIN TRANSPORT PROTEIN SEC24 | relative to vehicle control = 1, protein TB427.06.3860 HY[…], CONSERVED | relative to vehicle control = 1, protein TB927.10.4180 TFIIF-[…] PHOSPHATASE, PUTATIVE | relative to vehicle control = 1, protein TB927.10.6670 DYNEIN LIGHT CHAIN, PUTATIVE | relative to vehicle control = 1, protein TB927.6.4140 PAR[…] COMPONENT, PUTATIVE | vs vehicle control, protein TB927.2.4930 ESTERASE, PUTATIVE
0.56: relative to vehicle control = 1, protein TB927.4.4650 […] SYNTHASE, PUTATIVE
0.88: relative to vehicle control = 1, protein TB11.01.1290 14-3-3-I PROTEIN | relative to vehicle control = 1, protein TB427.10.15180 […] PROTEIN, PUTATIVE
0.85: relative to vehicle control = 1, protein TB427TMP.02.5660 HY[…], CONSERVED | relative to vehicle control = 1, protein TB427.05.3800 GLUTAMINE HYDROLYSING (NOT AMMONIA-DEPENDENT) […] PHOSPHATE SYNTHASE, PUTATIVE
1.45: vs vehicle control, protein TB427TMP.211.2730 GIM5A PROTEIN
1.2: relative to vehicle control = 1, protein TB427.08.3490 HY[…], CONSERVED | vs vehicle control, protein TB427.05.3170 RIBOSE-PHOSPHATE PYROPHOSPHOKINASE, PUTATIVE
0.83: vs vehicle control, protein TB427.10.1170 INTR[…] PROTEIN IFT172, PUTATIVE
1: relative to vehicle control = 1, protein TB09.160.3270 ATP-DEPENDENT DEAD BOX HELICASE, PUTATIVE | relative to vehicle control = 1, protein TB11.02.4700 14-3-3 PROTEIN | relative to vehicle control = 1, protein TB427TMP.01.1830 HY[…], CONSERVED | relative to vehicle control = 1, protein TB427TMP.01.6880 CYTOSOLIC COAT PROTEIN, PUTATIVE | relative to vehicle control = 1, protein TB427TMP.160.4770 PROTEIN KINASE, PUTATIVE | relative to vehicle control = 1, protein TB427.10.4940 NUCLEAR DBF2-RELATED KINASE | relative to vehicle control = 1, protein TB427.10.7630 HY[…], CONSERVED | relative to vehicle control = 1, protein TB927.1.2400 ALPHA TUBULIN | vs vehicle control, protein TB427.03.4910 SIGNAL PEPTIDE PEPTIDASE, PUTATIVE | vs vehicle control, protein TB427.06.4770 HY[…], CONSERVED | vs vehicle control, protein TB927.8.4330 SMALL GTP-BINDING PROTEIN RAB11
0.84: relative to vehicle control = 1, protein TB427.06.2550 RNA-BINDING PROTEIN, PUTATIVE
0.78: relative to vehicle control = 1, protein TB427.03.3160 POLY(A) POLYMERASE | relative to vehicle control = 1, protein TB927.7.2700 NADH-CYTOCHROME B5 REDUCTASE, PUTATIVE
0.92: relative to vehicle control = 1, protein TB427.05.300 THYMINE-7-HYDROXYLASE, PUTATIVE | relative to vehicle control = 1, protein TB427.08.3150 T-COMPLEX PROTEIN 1, GAMMA SUBUNIT, PUTATIVE | relative to vehicle control = 1, protein TB427.10.11930 NAD OR NADP DEPENDENT OXIDOREDUCTASE, PUTATIVE
0.93: relative to vehicle control = 1, protein TB427TMP.03.0090 RIBOKINASE, PUTATIVE | relative to vehicle control = 1, protein TB427TMP.160.4910 FLAVOPROTEIN MONOOXYGENASE, PUTATIVE | relative to vehicle control = 1, protein TB427.04.1510 PHOSPHOLIPID-TRA[…], PUTATIVE | relative to vehicle control = 1, protein TB427.05.1320 HY[…], CONSERVED | relative to vehicle control = 1, protein TB427.08.5460 FLAGELLAR CALCIUM-BINDING PROTEIN | vs vehicle control, protein TB427.08.550 PEPTIDE […] REDUCTASE, PUTATIVE | vs vehicle control, protein TB427.10.13660 HY[…], CONSERVED
0.8: relative to vehicle control = 1, protein TB427.05.2320 HY[…], CONSERVED
0.99: relative to vehicle control = 1, protein TB09.160.4250 TR[…] | relative to vehicle control = 1, protein TB11.50.0007 DYNEIN LIGHT CHAIN LC8, PUTATIVE | relative to vehicle control = 1, protein TB427TMP.02.4550 HY[…], CONSERVED | relative to vehicle control = 1, protein TB427TMP.03.0460 HY[…], CONSERVED | relative to vehicle control = 1, protein TB427.10.14910 SA[…] GLYCOPROTEIN, PUTATIVE | relative to vehicle control = 1, protein TB927.3.3490 HIGH MOBILITY GROUP PROTEIN, PUTATIVE | relative to vehicle control = 1, protein TB927.5.1930 HY[…], CONSERVED | relative to vehicle control = 1, protein TB927.6.2200 HY[…], CONSERVED | relative to vehicle control = 1, protein TB927.7.4480 ADENOSINE 5'-[…], PUTATIVE | relative to vehicle control = 1, protein TB927.8.1510 ATP-DEPENDENT DEAD/H RNA HELICASE, PUTATIVE | vs vehicle control, protein TB11.01.4370 HY[…], CONSERVED | vs vehicle control, protein TB427TMP.01.5690 DRBD4 | vs vehicle control, protein TB927.10.2100 […] 1-ALPHA | vs vehicle control, protein TB927.5.1630 HY[…], CONSERVED
1.29: vs vehicle control, protein ADENOSINE TRANSPORTER 1 (CZT00028614.1)
0.77: relative to vehicle control = 1, protein TB427.10.2350 PYRUVATE DEH[…] E3 BINDING PROTEIN, PUTATIVE
0.96: relative to vehicle control = 1, protein TB427TMP.01.7490 HY[…], CONSERVED | relative to vehicle control = 1, protein TB427TMP.39.0006 T[…] EIF2B DELTA SUBUNIT, PUTATIVE | relative to vehicle control = 1, protein TB427.08.5760 HY[…], CONSERVED | relative to vehicle control = 1, protein TB427.10.13880 HY[…], CONSERVED | relative to vehicle control = 1, protein TB927.10.5330 40S RIBOSOMAL PROTEIN S18, PUTATIVE | vs vehicle control, protein TB427.10.2290 CHAPERONE PROTEIN DNAJ, PUTATIVE
0.98: relative to vehicle control = 1, protein TB09.211.3540 GLYCEROL KINASE, GLYCOSOMAL | relative to vehicle control = 1, protein TB427TMP.01.7530 HY[…], CONSERVED | relative to vehicle control = 1, protein TB427TMP.02.3120 MALIC ENZYME, PUTATIVE | relative to vehicle control = 1, protein TB427TMP.02.5450 GLUCOSE-REGULATED PROTEIN 78, PUTATIVE | relative to vehicle control = 1, protein TB427.03.3560 HY[…], CONSERVED | relative to vehicle control = 1, protein TB927.10.12840 MIT[…] PROTEIN, PUTATIVE | relative to vehicle control = 1, protein TB927.10.14980 INTR[…] PROTEIN IFT52, PUTATIVE | vs vehicle control, protein TB427TMP.160.4240 […] PROTEIN-LIKE PROTEIN
0.87: relative to vehicle control = 1, protein TB427.08.6110 HY[…], CONSERVED
0.79: vs vehicle control, protein TB927.7.2750 PROTEIN KINASE, PUTATIVE
0.9: vs vehicle control, protein TB427.05.2890 HY[…], CONSERVED | vs vehicle control, protein TB427.10.1510 NOT1
0.81: vs vehicle control, protein TB427TMP.01.8510 T-COMPLEX PROTEIN 1, ALPHA SUBUNIT, PUTATIVE
